Key:
Assay type in all cases: functional
[1] = system: Staphylococcus epidermidis; experiment: Antimicrobial activity against Staphylococcus epidermidis at 1 mmol after 48 hrs
Thanatephorus cucumeris [2] = experiment: Antifungal activity against Rhizoctonia solani at 1 mmol after 48 hrs relative to control
Curvularia lunata [3] = experiment: Antifungal activity against Curvularia lunata at 1 mmol after 48 hrs relative to control
[4] = system: Staphylococcus epidermidis; experiment: Antimicrobial activity against Staphylococcus epidermidis at 1 mmol after 48 hrs relative to control
Pseudomonas aeruginosa [5] = experiment: Antimicrobial activity against Pseudomonas aeruginosa at 1 mmol after 48 hrs relative to control
Candida albicans [6] = experiment: Antimicrobial activity against Candida albicans at 1 mmol after 48 hrs relative to control
Thanatephorus cucumeris [7] = experiment: Antifungal activity against Rhizoctonia solani at 1 mmol after 48 hrs
Candida albicans [8] = experiment: Antimicrobial activity against Candida albicans at 1 mmol after 48 hrs
Pseudomonas aeruginosa [9] = experiment: Antimicrobial activity against Pseudomonas aeruginosa at 1 mmol after 48 hrs
Curvularia lunata [10] = experiment: Antifungal activity against Curvularia lunata at 1 mmol after 48 hrs
Candida albicans [11] = experiment: Antimicrobial activity against Candida albicans at 0.622 mg/ml after 48 hrs; settings: read-out: IZ
[12] = system: Staphylococcus epidermidis; experiment: Inhibition of growth of Staphylococcus epidermidis at 0.622 mg/ml after 48 hrs relative to control
Pseudomonas aeruginosa [13] = experiment: Inhibition of growth of Pseudomonas aeruginosa at 0.622 mg/ml after 48 hrs; settings: read-out: IZ
Pseudomonas aeruginosa [14] = experiment: Inhibition of growth of Pseudomonas aeruginosa at 0.622 mg/ml after 48 hrs relative to control
[15] = system: Staphylococcus epidermidis; experiment: Inhibition of growth of Staphylococcus epidermidis at 0.622 mg/ml after 48 hrs; settings: read-out: IZ
Candida albicans [16] = experiment: Antimicrobial activity against Candida albicans at 0.622 mg/ml after 48 hrs relative to control
Curvularia lunata [17] = experiment: Antifungal activity against Curvularia lunata at 0.652 mg/ml after 48 hrs relative to control
Curvularia lunata [18] = experiment: Antifungal activity against Curvularia lunata at 0.652 mg/ml after 48 hrs; settings: read-out: IZ
Thanatephorus cucumeris [19] = experiment: Antifungal activity against Rhizoctonia solani at 0.652 mg/ml after 48 hrs; settings: read-out: IZ
Thanatephorus cucumeris [20] = experiment: Antifungal activity against Rhizoctonia solani at 0.652 mg/ml after 48 hrs relative to control

| Structure (SMILES) | inhibition zone (IZ) [1] [cm] | Inhibition (Thanatephorus cucumeris [2]) [%] | Inhibition (Curvularia lunata [3]) [%] | Inhibition [4] [%] | Inhibition (Pseudomonas aeruginosa [5]) [%] | Inhibition (Candida albicans [6]) [%] | inhibition zone (IZ) (Thanatephorus cucumeris [7]) [cm] | inhibition zone (IZ) (Candida albicans [8]) [cm] | inhibition zone (IZ) (Pseudomonas aeruginosa [9]) [cm] | inhibition zone (IZ) (Curvularia lunata [10]) [cm] | zone of inhibition at 622 µg/mL (Candida albicans [11]) [mm] | Inhibition [12] [%] | zone of inhibition at 622 µg/mL (Pseudomonas aeruginosa [13]) [mm] | inhibition at 622 µg/mL (Pseudomonas aeruginosa [14]) [%] | zone of inhibition at 622 µg/mL [15] [mm] | inhibition at 622 µg/mL (Candida albicans [16]) [%] | inhibition at 652 µg/mL (Curvularia lunata [17]) [%] | zone of inhibition at 652 µg/mL (Curvularia lunata [18]) [mm] | zone of inhibition at 652 µg/mL (Thanatephorus cucumeris [19]) [mm] | inhibition at 652 µg/mL (Thanatephorus cucumeris [20]) [%] |
| --- | --- | --- | --- | --- | --- | --- | --- | --- | --- | --- | --- | --- | --- | --- | --- | --- | --- | --- | --- | --- |
| O=[N+]([O-])c1ccc2[nH]cc(C(c3cn(-c4ccccc4)nc3-c3ccccc3)c3c[nH]c4ccc([N+](=O)[O-])cc34)c2c1 | 0 | 0 | 0 | 0 | 14.4 | 0 | 9 | 0 | 1.3 | 9 |  |  |  |  |  |  |  |  |  |  |
| Brc1ccc2[nH]cc(C(c3cn(-c4ccccc4)nc3-c3ccccc3)c3c[nH]c4ccc(Br)cc34)c2c1 | 2.1 | 41.1 | 47.8 |  |  |  | 5.3 | 2.7 | 1.8 | 4.7 | 27 | ≤ 23.3 | 18 | 20 | 21 | 30 |  |  |  |  |
| Clc1ccc(-c2nn(-c3ccccc3)cc2C(c2c[nH]c3ccc(Br)cc23)c2c[nH]c3ccc(Br)cc23)cc1 | 0 | 17.8 | 15.6 | 0 | 0 | 6.7 | 7.4 | 0.6 | 0 | 7.6 |  |  |  |  |  |  |  |  |  |  |
| COc1ccc(-c2nn(-c3ccccc3)cc2C(c2c[nH]c3ccc([N+](=O)[O-])cc23)c2c[nH]c3ccc([N+](=O)[O-])cc23)cc1 | 0 | 53.3 | 84.4 | 0 | 0 | 0 | 4.8 | 0 | 0 | 1.4 |  |  |  |  |  |  |  |  |  |  |
| CCn1c(-c2ccccc2)c(C(c2cn(-c3ccccc3)nc2-c2ccc(Cl)cc2)c2c(-c3ccccc3)n(CC)c3ccccc23)c2ccccc21 | 1.4 | 18.8 | 42.2 | 15.6 | 15.6 | 5.6 | 7.3 | 0.5 | 1.4 | 5.2 |  |  |  |  |  |  |  |  |  |  |
| COc1ccc(-c2nn(-c3ccccc3)cc2C(c2c[nH]c3ccc(Br)cc23)c2c[nH]c3ccc(Br)cc23)cc1 | 0 |  |  | 0 | 15.6 | 0 |  | 0 | 1.4 |  |  |  |  |  |  |  | 96.7 | 3 | 5 | 93.9 |
| CCn1c(-c2ccccc2)c(C(c2cn(-c3ccccc3)nc2-c2ccc(Br)cc2)c2c(-c3ccccc3)n(CC)c3ccccc23)c2ccccc21 | 0.7 | 16.7 | 13.3 | 7.9 | 0 | 0 | 7.5 | 0 | 0 | 7.8 |  |  |  |  |  |  |  |  |  |  |
| Brc1ccc(-c2nn(-c3ccccc3)cc2C(c2c[nH]c3ccc(Br)cc23)c2c[nH]c3ccc(Br)cc23)cc1 | 0 | 81.1 | 91.1 | 0 | 16.7 | 24.4 | 1.7 | 2.2 | 1.5 | 0.8 |  |  |  |  |  |  |  |  |  |  |
